Measured values from patent US7902261B2, “Medicinal compositions for preventing or treating viral myocarditis” (Mitsubishi Tanabe Pharma Corporation, priority 1999, dated 2011).
Structures can show the parent of a compound that is named as a salt.

How the values were obtained:
NO = assay: Intracardiac nitric oxide (NO) assay (modified Griess method); format: in vivo, mouse; conditions: heart ventricle at day 5; CsA 40 mg/kg/day, compound 1 10 mg/kg/day orally; mean ± SEM; control 2.07 ± 0.20
Procedure: Four-week-old male DBA/2 mice were divided into 3 groups and EMC virus (10 pfu) was intraperitoneally inoculated. After inoculation, distilled water (solvent, n=8) as a control, CsA (40 mg/kg/day, n=5), and compound 1 (10 mg/kg/day, n=7) were orally administered forcibly for 5 consecutive days using a probe. Five days later, the heart was aseptically harvested from the mice, and after weighing the ventricle, homogenized in phosphate-buffered saline (PBS, 1 ml). The homogenate was centrifuged at 4° C., 1,500 g for 15 min and the supernatant (0.1 ml) was inoculated to human amnion FL cell monolayer and cultured at 37° C. for 60 min in 5% CO2. The cells were overlaid with a medium (3 ml) containing 4% fetal calf serum and 1% methylcellulose. […] The plaques were counted under an inverted microscope (Circulation. 89:846-851, 1994). […]
The intracardiac NO content was measured using the same supernatant as used for the cytokine assay according to a modified method of Griess method (J. Am. Coll. Cardiol. 33:1400-1407, 1999; Anal. Biochem. 224:502-508, 1995). […] Optical density at 540 nm was measured using a microplate reader. The nitrite concentration of each sample was calculated based on the standard product. […] The intracardiac NO content was determined by dividing each nitrite concentration by the total protein concentration of each supernatant and expressed in μM/mg total protein. […]

[1] = system: EMC (Encephalomyocarditis) virus; assay: Survival rate, EMC viral myocarditis in mice (Experimental Example 1); format: in vivo, DBA/2 mice; conditions: EMC virus 10 pfu i.p., control 0%
Procedure: Four-week-old DBA/2 mice were divided into 3 groups, and EMC (Encephalomyocarditis) virus (10 pfu) was intraperitoneally inoculated. After inoculation, distilled water (solvent, group A, n=11) as a control, compound 1 (1 mg/kg/day, group B, n=10), and compound 1 (3 mg/kg/day, group C, n=10) were orally administered forcibly for 14 consecutive days using a probe. The survival rate of each group after 14 days was compared by Kaplan-Meier method.

IFN-γ = assay: Intracardiac cytokine assay (ELISA), IFN-γ; format: in vivo, mouse; conditions: heart ventricle at day 5; CsA 40 mg/kg/day, compound 1 10 mg/kg/day orally; mean ± SEM; control 151.20 ± 15.66
Procedure: (§1) Four-week-old male DBA/2 mice were divided into 3 groups and EMC virus (10 pfu) was intraperitoneally inoculated. After inoculation, distilled water (solvent, n=8) as a control, CsA (40 mg/kg/day, n=5), and compound 1 (10 mg/kg/day, n=7) were orally administered forcibly for 5 consecutive days using a probe. Five days later, the heart was aseptically harvested from the mice, and after weighing the ventricle, homogenized in phosphate-buffered saline (PBS, 1 ml). The homogenate was centrifuged at 4° C., 1,500 g for 15 min and the supernatant (0.1 ml) was inoculated to human amnion FL cell monolayer and cultured at 37° C. for 60 min in 5% CO2. The cells were overlaid with a medium (3 ml) containing 4% fetal calf serum and 1% methylcellulose. After culture under 5% CO2-containing humidified atmosphere at 37° C. for 20 hr, the cells were fixed with acetic acid-methanol (1:2) and stained with 1% crystal violet. The plaques were counted under an inverted microscope (Circulation. 89:846-851, 1994). When the plaques are too many to count, the supernatant is appropriately diluted with Dulbecco's modified Eagle's medium (DMEM) and subjected to a similar assay. […]
(§2) The total protein concentration of each supernatant was measured by bicinchoninic acid (BCA) method, and the ratio of the cytokine concentration to the total protein concentration was calculated (J. Am. Coll. Cardiol. 33:1400-1407, 1999). […]

IL-2 = assay: Intracardiac cytokine assay (ELISA), IL-2; format: in vivo, mouse; conditions: heart ventricle at day 5; CsA 40 mg/kg/day, compound 1 10 mg/kg/day orally; mean ± SEM; control 12.79 ± 1.24
Procedure: as §1, §2

[2] = system: EMC (Encephalomyocarditis) virus; assay: Histopathological observation of the heart (Experimental Example 1); format: in vivo, DBA/2 mice; conditions: n=8, day 5, mean ± SEM; for necrosis of myocardial cell (score 0 to 4+): control 1.9 ± 0.2; for cellular infiltration (score 0 to 4+): control 2.0 ± 0.2
Procedure: (§3) Four-week-old DBA/2 mice were divided into 3 groups and EMC (Encephalomyocarditis) virus (10 pfu) was intraperitoneally inoculated. After inoculation, distilled water (solvent, n=9) as a control, compound 1 (3 mg/kg/day, n=8), and compound 1 (10 mg/kg/day, n=8) were orally administered forcibly for 5 consecutive days using a probe. Five days later, the heart was removed, and, after fixing with formalin, subjected to hematoxylin-eosin staining, based on which heart necrosis and cellular infiltration were scored as follows. • 0; no lesion, • 1+; lesion in 25% or less of the heart, • 2+; lesion in more than 25% and not more than 50% of the heart • 3+; lesion in more than 50% and not more than 75% of the heart • 4+; lesion in more than 75% and not more than 100% of the heart Results

EMC virus [3] = assay: Histopathological observation of the heart (Experimental Example 2); format: in vivo, male DBA/2 mice; conditions: CsA 40 mg/kg/day, compound 1 10 mg/kg/day orally for 5 days, day 5, mean ± SEM
Procedure: as §3
Four-week-old male DBA/2 mice were divided into 3 groups and EMC virus (10 pfu) was intraperitoneally inoculated. […] Five days later, the heart was harvested, and, after fixing with formalin, subjected to hematoxylin-eosin staining, based on which heart necrosis and cellular infiltration were scored according to the criteria shown in Experimental Example 1.
The myocardial cell necrosis and cellular infiltration were independently scored by two observers and averaged. […]

EMC virus [4] = assay: Intracardiac virus titer (plaque assay on human amnion FL cells); format: in vivo, male DBA/2 mice; conditions: CsA 40 mg/kg/day, compound 1 10 mg/kg/day orally for 5 days; heart at day 5; mean ± SEM; control 5.18 ± 2.73 × 10^6
Procedure: Four-week-old male DBA/2 mice were divided into 3 groups and EMC virus (10 pfu) was intraperitoneally inoculated. After inoculation, distilled water (solvent, n=8) as a control, CsA (40 mg/kg/day, n=5), and compound 1 (10 mg/kg/day, n=7) were orally administered forcibly for 5 consecutive days using a probe. Five days later, the heart was aseptically harvested from the mice, and after weighing the ventricle, homogenized in phosphate-buffered saline (PBS, 1 ml). The homogenate was centrifuged at 4° C., 1,500 g for 15 min and the supernatant (0.1 ml) was inoculated to human amnion FL cell monolayer and cultured at 37° C. for 60 min in 5% CO2. The cells were overlaid with a medium (3 ml) containing 4% fetal calf serum and 1% methylcellulose. After culture under 5% CO2-containing humidified atmosphere at 37° C. for 20 hr, the cells were fixed with acetic acid-methanol (1:2) and stained with 1% crystal violet. The plaques were counted under an inverted microscope (Circulation. 89:846-851, 1994). When the plaques are too many to count, the supernatant is appropriately diluted with Dulbecco's modified Eagle's medium (DMEM) and subjected to a similar assay. The test was repeated and the mean was taken. The virus titer was expressed in pfu/g heart. The statistical analysis was conducted by one way ANOVA and Fisher's protected least significant difference test.

EMC virus [5] = assay: Survival rate, EMC viral myocarditis in mice (Experimental Example 2); format: in vivo, DBA/2 male mice; conditions: compound 1 10 mg/kg/day orally for 14 days, n=22 (6 survived); control 0%
Procedure: The effects on viral myocarditis of compound 1 and an immunosuppressant, cyclosporin A (hereinafter to be referred to as CsA), were compared. The compound 1 was dissolved in sterile distilled water and administered, and CsA was dissolved in olive oil and administered.
Four-week-old DBA/2 male mice were divided into 3 groups, and EMC virus (10 pfu) was intraperitoneally inoculated. After inoculation, distilled water (solvent, control group, n=21), CsA (40 mg/kg/day, CsA group, n=9), and compound 1 (10 mg/kg/day, compound 1 group, n=22) were orally administered forcibly for 14 consecutive days using a probe. The survival rate of each group after 14 days was compared by Kaplan-Meier method.

IL-12 = assay: Intracardiac cytokine assay (ELISA), IL-12; format: in vivo, mouse; conditions: heart ventricle at day 5; CsA 40 mg/kg/day, compound 1 10 mg/kg/day orally; mean ± SEM; control 71.76 ± 7.37
Procedure: as §1, §2

TNF-α = assay: Intracardiac cytokine assay (ELISA), TNF-α; format: in vivo, mouse; conditions: heart ventricle at day 5; CsA 40 mg/kg/day, compound 1 10 mg/kg/day orally; mean ± SEM; control 4.11 ± 0.11
Procedure: as §1, §2

## CCCCCCCCc1ccc(CCC(N)(CO)CO)cc1 [compound 1, 2-Amino-2-(2-(4-octylphenyl)ethyl)propane-1,3-diol hydrochloride]
NO
  NO content: 1.91 ± 0.34 μM/mg total protein
[1]; 1 mg/kg/day orally for 14 days (group B, n=10)
  survival rate at day 14: 10%
[1]; 3 mg/kg/day orally for 14 days (group C, n=10), p<0.05
  survival rate at day 14: 30%
IFN-γ
  IFN-γ: 108.86 ± 12.98 pg/mg total protein
IL-2
  IL-2: 6.06 ± 0.67 ng/mg total protein
[2]; 3 mg/kg/day orally for 5 days
  necrosis of myocardial cell (score 0 to 4+): 1.7 ± 0.4
  cellular infiltration (score 0 to 4+): 1.6 ± 0.2
[2]; 10 mg/kg/day orally for 5 days
  necrosis of myocardial cell (score 0 to 4+): 1.0 ± 0.2
  cellular infiltration (score 0 to 4+): 1.1 ± 0.2
EMC virus [3]; control 1.89 ± 0.23
  necrosis of myocardial cell (score 0 to 4+): 1.00 ± 0.19
EMC virus [3]; control 2.00 ± 0.19
  cellular infiltration (score 0 to 4+): 1.06 ± 0.19
EMC virus [4]
  virus titer: 1.23 ± 0.53 × 10^7 (NS) pfu/g heart
EMC virus [5]
  survival rate at day 14: 27%
IL-12
  IL-12: 46.00 ± 12.82 pg/mg total protein
TNF-α
  TNF-α: 3.72 ± 0.25 ng/mg total protein
